Where a name gives a salt, the structure may show the parent alone.
Tested on: MTT (mouse pheochromocytoma)
Assay: IC50 of cell viability (ATP content)
Details: (24 or 48 h)
How it was run: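 MTT mouse pheochromocytoma cells (5 µl of 200,000 cells/ml per well, white 1536-well plates, DMEM with 5% FBS and 1% horse serum) were cultured overnight at 37°C, 5% CO2. They then received 23 nl library compound in DMSO by pintool at 8 concentrations (final 0.5 nM to 46 µM) for 24 or 48 hrs. CellTiter-Glo ATP luminescence was read after 15 minutes. Signals were normalised to positive-control (100% inhibition) and DMSO (0%) wells, and IC50 came from a four-parameter logistic fit.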

Compound	IC50 of cell viability
COP(=S)(OC)Oc1ccc(SC)c(C)c1 [Fenthion (Baytex)]	> 46 µM
CC(C)NCC(O)c1ccc(N[S+](C)(=O)[O-])cc1.Cl (configuration not stated) [DEXSOTALOLUM]	> 46 µM
CNC(=O)Oc1ccccc1C(=O)Nc1ccccc1 [Anilamate]	> 46 µM
O=C(O)c1ccccc1-c1c2ccc(=O)cc-2oc2cc(O)ccc12 [Fluorescein sodium]	> 46 µM
O=P(O)(O)OC(Cn1cncn1)(Cn1cncn1)c1ccc(F)cc1F [Fosfluconazole]	> 46 µM
CCCCCC(O)C1C(=O)OC(C)C(O)C=CC=CC=CC=CC=C(C)C(O)C(O)C(O)CC(O)CC(O)CC(O)CC(O)CC1O (configuration not stated) [Fungichromin]	> 46 µM
OC[C@H]1O[C@H](C[C@@H]1O)N2\C=C(Br)/C(=O)NC2=O [Broxuridina]	> 46 µM
OC(Cn1cncn1)(Cn1cncn1)c1ccc(F)cc1F [FLUCONAZOLE]	> 46 µM
NC/1=N/C(=O)N(/C=C1)[C@H]2CC[C@@H](CO)O2 [2',3'-Dideoxycytidine]	> 46 µM
CC1(C)O[C@H]2C[C@@H]3[C@H]4CC\C5=C\C(=O)CC[C@@]5(C)[C@]4(F)[C@@H](O)C[C@]3(C)[C@]2(O1)C(=O)CCl [Halcinonide]	> 46 µM
C[C@@](Cc1ccc(O)c(O)c1)(NN)C(=O)O [CARBIDOPA]	> 46 µM
c1ccc2c(c1)Sc1ccccc1N2C[C@H]1CN2CCC1CC2 [Levomequitazine]	> 46 µM
CC(C)C(Br)C(=O)NC(N)=O (configuration not stated) [Bromisovalum]	> 46 µM
CN1C(=O)[C@@H](NC(=O)c2cc3ccccc3[nH]2)N=C(c2ccccc2)c2ccccc21 [DEVAZEPIDUM]	> 46 µM
CC(C)(C)CC(C)(C)c1cc(Cc2cc(C(C)(C)CC(C)(C)C)cc(-n3nc4ccccc4n3)c2O)c(O)c(-n2nc3ccccc3n2)c1 [BISOCTRIZOLE]	> 46 µM
C=CC1=C(C(=O)O)N2C(=O)[C@@H](NC(=O)/C(=N\OCC(=O)O)c3csc(N)n3)[C@@H]2SC1 [Cefixime]	> 46 µM
CC(C)(C)NCC(O)c1cc(Cl)c(N)c(Cl)c1 (configuration not stated) [CLENBUTEROL]	> 46 µM
C[C@H]1[C@@H]2Cc3ccc(O)cc3[C@]1(C)CCN2C [(+)-Metazocine]	> 46 µM

Compound	IC50 of cell viability
CCC[C@H]1C[C@H](C(=O)N[C@@H]([C@@H]2O[C@@H](SC)[C@@H](O)[C@@H](O)[C@H]2O)[C@H](C)Cl)N(C)C1 [Clindamycin hydrochloride]	> 46 µM
Cc1ccc2c(c1)[C@@H]1CN(C)CC[C@H]1N2 [DICARBINUM]	> 46 µM
O=C1[C@@H]2C[C@@H]3C[C@H]1C[C@@](O)(C3)C2 [5-Hydroxy-2-adamantanone]	> 46 µM
CC(N)CCCC(C)(C)O.Cl (configuration not stated) [HEPTAMINOL HYDROCHLORIDE]	> 46 µM
C[C@]12CCC3[C@@H](CCC4=CC(=O)CC[C@@]43C)C1CCC2OC(=O)CCc1ccccc1 (some centres not stated) [Testosterone 17-phenylpropionate]	> 46 µM
CC(C)(C)CC(C)(C)c1ccc(O)cc1 [4-(1,1,3,3-Tetramethylbutyl)phenol]	> 46 µM
CCN(CC)CCOCCOC(=O)C1(c2ccccc2)CCCC1 [CARBETAPENTANE]	> 46 µM
C=C(NCc1ccccc1)c1ccccc1O	> 46 µM
C[C@@H]1C[C@H]2[C@@H]3C[C@H](F)C/4=C/C(=O)/C=C\[C@]4(C)[C@@]3(F)[C@@H](O)C[C@]2(C)[C@@]1(O)C(=O)COC(=O)C(C)(C)C [Flumethasone pivalate]	> 46 µM
CC(C)(C)C(=O)OCC(=O)C1CCC2C3CCC4=CC(=O)CCC4(C)C3CCC12C (configuration not stated) [DESOXYCORTICOSTERONE PIVALATE]	> 46 µM
CCC(C)C1OC2(C=CC1C)CC1CC(CC=C(C)C(OC3CC(OC)C(OC4CC(OC)C(NC(C)=O)C(C)O4)C(C)O3)C(C)C=CC=C3COC4C(O)C(C)=CC(C(=O)O1)C34O)O2 (configuration not stated) [Eprinomectin B1a]	> 46 µM
CCOC(=O)C(CS)NCCN[C@@H](CS)C(=O)OCC (some centres not stated)	> 46 µM
ClC1C(Cl)C(Cl)C(Cl)C(Cl)C1Cl (configuration not stated) [LINDANE]	> 46 µM
CCC(C)(S(=O)(=O)CC)S(=O)(=O)CC [SULFONETHYLMETHANE]	> 46 µM
N[S+](=O)([O-])c1cc2c(cc1Cl)NCN[S+]2(=O)[O-] [HYDROCHLOROTHIAZIDE]	> 46 µM
O=[N+]([O-])c1c(Cl)c(Cl)cc(Cl)c1Cl [2,3,5,6-Tetrachloronitrobenzene]	> 46 µM
CC(C)(c1ccc(O)cc1)c1ccc(O)cc1 [Bisphenol A]	> 46 µM
CNC1CCCN(c2c(F)cc3c(=O)c(C(=O)O)cn(C4CC4)c3c2OC)C1 (configuration not stated) [BALOFLOXACIN HYDRATE]	> 46 µM

Next, values leading:

IC50 of cell viability	Compound
> 46 µM	C[C@H]\1C[C@H]2[C@H]3CC[C@](O)(C(=O)CO)[C@]3(C)C[C@@H](O)[C@@H]2[C@]4(C)\C=C/C(=O)/C=C14 [Methylprednisolone, 6-alpha]
> 46 µM	NCCCC(N)C(=O)O [Poly-L-ornithine hydrochloride]
> 46 µM	O=C1NCCN1c1ncc([N+](=O)[O-])s1 [Niridazole]
> 46 µM	O=S(=O)([O-])c1ccc(O)cc1 [PHENOLSULFONIC ACID]
> 46 µM	CC(CC(=O)O)(CC(=O)O)C(=O)O.CCN(CC)CCOCCOC(=O)C(CC)(CC)c1ccccc1 [OXELADIN TANNATE]
> 46 µM	CC1CCC(C(C)C)C(O)C1 (configuration not stated) [MENTHOL]
> 46 µM	Clc1ccc(Nc2nnc(Cc3ccncc3)c3ccccc23)cc1 [Vatalanib Dihydrochloride]
> 46 µM	CC(=O)Nc1ccc(OCC(O)CNC(C)C)cc1 (configuration not stated) [PRACTOLOL]
> 46 µM	C=C1/C(=C\C=C2/CCC[C@@]3(C)[C@@H]([C@H](C)OCCC(C)(C)O)CC[C@@H]23)C[C@@H](O)C[C@@H]1O [Maxacalcitol]
> 46 µM	CCC(=O)c1ccc(O)cc1 [P-HYDROXYPROPIOPHENONE]
> 46 µM	Cc1nc([N+](=O)[O-])cn1-c1ccc([N+](=O)[O-])cc1 [Nitrefazole]
> 46 µM	CCCCCCCCCCCCCCCC(=O)O[C@@H]1CC(C)=C(\C=C/C(C)=C\C=C/C(C)=C\C=C\C=C(C)\C=C\C=C(C)\C=C\C2=C(C)C[C@@H](OC(=O)CCCCCCCCCCCCCCC)CC2(C)C)C(C)(C)C1 [PHYSALIEN with TLC]
> 46 µM	CC1(C)OC[C@@H](COC(=O)CCc2ccc(OC[C@@H](O)CNCCNC(=O)N3CCOCC3)cc2)O1 [Landiolol Hydrochloride]
> 46 µM	CC(=O)N1CCN(c2ccc(OC[C@@H]3CO[C@@](Cn4ccnc4)(c4ccc(Cl)cc4Cl)O3)cc2)CC1 [Ketoconazole]
> 46 µM	CC(C)c1nc(N(C)[S+](C)(=O)[O-])nc(-c2ccc(F)cc2)c1/C=C/C(O)CC(O)CC(=O)O (configuration not stated) [ROSUVASTATIN]
> 46 µM	O=P(O)(O)C(O)(Cc1cnc2ccccn12)P(=O)(O)O [Minodronic acid]

IC50 of cell viability	Compound
> 46 µM	Cc1c(C)c2c(c(C)c1OC(=O)CCC(=O)O)CC[C@@](C)(CCC[C@H](C)CCC[C@H](C)CCCC(C)C)O2 [TOCOPHERYL SUCCINATE]
> 46 µM	CCCCCN(CCCCC)C(=O)C(CCC(=O)[O-])NC(=O)c1ccc(Cl)c(Cl)c1.[Na+] (configuration not stated) [LORGLUMIDE SODIUM]
> 46 µM	CC(C)(C)C(O)C=Cc1ccc2c(c1)OCO2 (configuration not stated) [Stiripentol]
> 46 µM	C=CC1CN2CCC1CC2[C@@H](O)c1ccnc2ccc(OC)cc12 (some centres not stated) [QUINIDINE GLUCONATE]
> 46 µM	Cc1ccc(C(=O)C(C)CN2CCCCC2)cc1.Cl (configuration not stated) [TOLPERISONE HYDROCHLORIDE]
> 46 µM	CN\1C(=O)C(=C(\N=C1C(C)(C)NC(=O)C2=NN=C(C)O2)C(=O)NCC3=CC=C(F)C=C3)/O [Raltegravir]
> 46 µM	CCCCOC(=O)C(=O)Nc1cccc(-c2nnn[nH]2)c1 [Tazanolast]
> 46 µM	CC(CNC(=O)c1cccnc1)NC(=O)c1cccnc1 (configuration not stated) [Nicaraven]
> 46 µM	Cc1cc(CC(=O)O)n(C)c1C(=O)c1ccc(Cl)cc1 [ZOMEPIRAC SODIUM]
> 46 µM	Cc1ncc(CSSCc2cnc(C)c(O)c2CO)c(CO)c1O [PYRITHIOXINE]
> 46 µM	N[C@@H](Cc1ccc(O)cc1)C(=O)O [TYROSINE]
> 46 µM	CCCc1nn(C)c2c(O)nc(-c3cc([S+](=O)([O-])N4CCN(C)CC4)ccc3OCC)nc12 [Sildenafil citrate]
> 46 µM	O=C(OC[C@@H]1O[C@@](O)(COC(=O)c2cccnc2)[C@H](OC(=O)c2cccnc2)[C@H]1OC(=O)c1cccnc1)c1cccnc1 [NICOFURANOSUM]
> 46 µM	CSCC[C@H](NC(=O)[C@@H](Cc1ccc(O[S+](=O)([O-])O)cc1)NC(=O)[C@H](N)CC(=O)O)C(=O)NCC(=O)N[C@@H](Cc1c[nH]c2ccccc12)C(=O)N[C@H](CCSC)C(=O)N[C@H](CC(=O)O)C(=O)N[C@@H](Cc1ccccc1)C(N)=O [SINCALIDE]
> 46 µM	CN1CCCCC1CCN1c2ccccc2Sc2ccc(S(C)=O)cc21 (configuration not stated) [MESORIDAZINE]

Reference: the supplement of paper PMC3974653
